Assay results reported in paper PMC10709440, “High-throughput ligand profile characterization in novel cell lines expressing seven heterologous insect olfactory receptors for the detection of volatile plant biomarkers” (Scientific Reports, 2023).
Where two headings read alike, the source gives them in different places.

What was measured:
[1] = target: T1, Drosophila OR10a (Drosophila melanogaster, UniProt Q9VYZ1); test: Calcium ion fluorescence (GCaMP6) assay, OR10a stable HEK293 cell line; type: cell-based; settings: for DF norm AVERAGE OR10a: threshold 0.05, below shown as 0
T1 construct: expressed in transfected cells
T1 sequence (Q9VYZ1 1-406): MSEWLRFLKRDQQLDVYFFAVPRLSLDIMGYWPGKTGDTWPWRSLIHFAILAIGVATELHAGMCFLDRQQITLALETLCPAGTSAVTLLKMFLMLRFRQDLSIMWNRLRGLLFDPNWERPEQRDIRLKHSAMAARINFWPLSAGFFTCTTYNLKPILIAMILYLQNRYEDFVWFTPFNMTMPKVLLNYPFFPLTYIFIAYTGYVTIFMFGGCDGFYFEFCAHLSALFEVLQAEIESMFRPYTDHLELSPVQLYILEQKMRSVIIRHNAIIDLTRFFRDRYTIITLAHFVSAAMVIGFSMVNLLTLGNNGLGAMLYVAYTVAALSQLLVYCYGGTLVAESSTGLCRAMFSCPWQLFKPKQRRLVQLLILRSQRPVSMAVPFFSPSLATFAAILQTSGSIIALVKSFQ
T1 sequence (Q9VNB5 1-486 partner): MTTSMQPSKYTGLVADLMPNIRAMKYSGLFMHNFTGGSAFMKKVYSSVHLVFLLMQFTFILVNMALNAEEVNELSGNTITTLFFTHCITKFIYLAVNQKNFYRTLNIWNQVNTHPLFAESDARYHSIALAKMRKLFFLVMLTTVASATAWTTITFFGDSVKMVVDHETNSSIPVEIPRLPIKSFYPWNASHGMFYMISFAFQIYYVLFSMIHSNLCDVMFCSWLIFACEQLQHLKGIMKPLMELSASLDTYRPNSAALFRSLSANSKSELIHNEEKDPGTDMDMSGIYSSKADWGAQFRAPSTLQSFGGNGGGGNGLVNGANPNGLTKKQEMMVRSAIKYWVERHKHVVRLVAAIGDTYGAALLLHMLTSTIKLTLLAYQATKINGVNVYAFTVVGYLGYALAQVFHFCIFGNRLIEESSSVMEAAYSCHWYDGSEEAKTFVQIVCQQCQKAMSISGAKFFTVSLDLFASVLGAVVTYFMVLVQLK
How it was run: (§1)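 HEK293 lines stably expressing each Drosophila OR with GCaMP6, doxycycline-induced (1 μg/mL) 48 or 72 h. Fluorescence recorded 5 s baseline then 30 s after VOC injection at pH 7.3; ΔF=(FMAX−F0)/F0, normalized to 50 µM VUAA1 response per line, triplicate wells averaged; concentration series 0.01–100 μM.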

[2] = target: T2, Drosophila OR85b (Drosophila melanogaster, UniProt Q9VHQ7); test: Calcium ion fluorescence (GCaMP6) assay, OR85b stable HEK293 cell line; type: cell-based; settings: for activation at 1 µM / activation at 10 µM / activation at 100 µM: HEK293, read-out: OR85b response (VUAA1-normalized response); for Average response: OR85b cell line, VUAA1-normalized response, mean of biological replicates; for DF norm AVERAGE OR85b: threshold 0.05, below shown as 0
T2 construct: expressed in transfected cells
T2 sequence (Q9VHQ7 1-390): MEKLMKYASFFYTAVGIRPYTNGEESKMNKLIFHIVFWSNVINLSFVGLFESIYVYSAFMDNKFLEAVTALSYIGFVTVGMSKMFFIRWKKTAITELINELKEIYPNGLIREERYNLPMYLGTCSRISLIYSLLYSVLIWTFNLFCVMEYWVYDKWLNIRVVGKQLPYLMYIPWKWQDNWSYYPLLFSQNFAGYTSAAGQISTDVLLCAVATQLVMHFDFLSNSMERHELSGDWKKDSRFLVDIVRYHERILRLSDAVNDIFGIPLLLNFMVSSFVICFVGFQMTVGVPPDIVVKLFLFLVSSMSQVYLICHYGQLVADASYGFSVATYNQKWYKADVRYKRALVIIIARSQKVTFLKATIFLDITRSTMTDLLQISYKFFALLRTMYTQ
T2 sequence (Q9VNB5 1-486 partner): T1 sequence (Q9VNB5 1-486 partner)
How it was run: as §1

[3] = HEK293, read-out: OR10a Average response (VUAA1-normalized), 1 μM VOC, 50 μM VUAA1 = 1, responses not exceeding 0.05 considered 0
[4] = HEK293, read-out: OR10a Average response (VUAA1-normalized), 10 μM VOC, 50 μM VUAA1 = 1, responses not exceeding 0.05 considered 0
[5] = HEK293, read-out: OR10a Average response (VUAA1-normalized), 100 μM VOC, 50 μM VUAA1 = 1, responses not exceeding 0.05 considered 0
[6] = HEK293, read-out: OR10a response (VUAA1-normalized response), VOC concentration 1 μM
[7] = HEK293, read-out: OR10a response (VUAA1-normalized response), VOC concentration 10 μM
[8] = HEK293, read-out: OR10a response (VUAA1-normalized response), VOC concentration 100 μM
[9] = ligand concentration 1 (unit not given)
[10] = ligand concentration 10 (unit not given)
[11] = ligand concentration 100 (unit not given)

Compound	activation at 1 µM [1, 3]	activation at 10 µM [1, 4]	activation at 100 µM [1, 5]	activation at 1 µM [1, 6]	activation at 10 µM [1, 7]	activation at 100 µM [1, 8]	DF norm AVERAGE OR10a [1, 9]	DF norm AVERAGE OR10a [1, 10]	DF norm AVERAGE OR10a [1, 11]	activation at 1 µM [2]	activation at 10 µM [2]	activation at 100 µM [2]	Average response ([2]; cc. 1 µM)	Average response ([2]; cc. 10 µM)	Average response ([2]; cc. 100 µM)	DF norm AVERAGE OR85b [2, 9]	DF norm AVERAGE OR85b [2, 10]	DF norm AVERAGE OR85b [2, 11]	also measured
CC1=CCC2CC1C2(C)C (stereo not drawn) [alpha-pinene]	5%	0%	7.44%	0%	0%	7.44%	0	0	0.07438	0%	0%	0%	0.03	0.00	0.0358	0	0	0	
CC1=CC[C@@H](C(C)(C)O)CC1 [alpha-terpineol]	3.64%	2.71%	0%	0%	0%	0%	0	0	0	0%	0%	0%	0.05	0.03	0.02	0	0	0	
O=Cc1ccccc1 [benzaldehyde]				0%	0%	17%	0	0	0.1697	6%	0%	0%	0.06	0.00	0.00	0.06124	0	0	activation at 1 µM ([1]; HEK293, 1 μM VOC, 50 μM VUAA1 = 1, responses not exceeding 0.05 considered 0, read-out: OR10a Average response (VUAA1-normalized)): 0%; activation at 10 µM ([1]; HEK293, 10 μM VOC, 50 μM VUAA1 = 1, responses not exceeding 0.05 considered 0, read-out: OR10a Average response (VUAA1-normalized)): 4%; activation at 100 µM ([1]; HEK293, 100 μM VOC, 50 μM VUAA1 = 1, responses not exceeding 0.05 considered 0, read-out: OR10a Average response (VUAA1-normalized)): 17%
C=C1CCC2CC1C2(C)C (stereo not drawn) [beta-pinene]	2.77%	4%	9%	0%	0%	9%	0	0	0.0885	0%	10%	9%	0.00	0.10	0.09	0	0.09683	0.0913	
CCCCOC(C)=O [butyl acetate]	3%	0%	5%	0%	0%	0%	0	0	0	0%	0%	0%	0.00	0.00	0.00	0	0	0	
